According to US6368624B1, “Tableted product prepared by vacuum freeze-drying of a plant belonging to genus aloe of family Liliaceae and the method for producing same” (Yurika Incorporated, priority 1990, dated 2002):

System: human O-type erythrocytes
Assay: Erythrocyte agglutination, microtiter method
Format: cell-based
Conditions: at a concentration of 1 mg/ml
Method: The inventive tablet and the control tablet obtained by drying under hot air circulation, were crushed into powders. 1.0 g each of the powders was dissolved in 10 ml of distilled water. After stirring, each of the resulting solutions was centrifuged at 4° C. for 30 minutes at 12,000 rpm.
The erythrocyte agglutination activity of each of the produced supernatants was examined in accordance with the microtiter method.
A buffer solution obtained by mixing phosphoric acid with physiological saline to pH 7.4 was added to 100 μl each of the supernatarits for two-stage dilution until 128-fold dilution was reached. To each diluted solution, 100 μof the 1% human O-type erythrocytes were added, and reaction was carried out at 37° C. for one hour to observe the progress of agglutination.

Substance: Concanavalin A
- Agglutination titer: 32 titer
